# Legend:
# [1] = test system: P. aeruginosa (susceptible clinical isolate); assay: Potentiation of clinically used antibiotics, susceptible clinical isolate; assay type: cell-based, Pseudomonas aeruginosa; details: Table 3; antibiotic alone or mixed with PP compound
# Method: (§1) One to three colonies of bacteria were picked from an Mueller-Hinton or Brain Heart infusion agar plate (depending on the bacterial strain) and transferred to 3 ml Mueller-Hinton broth or Brain Heart infusion media (depending on the bacterial strain). Bacteria were allowed to grow for 2-4 hours in an incubator at 37° C. Bacteria-inoculated media were dispersed in 0.9% saline to match McFarland standard density. 100 μl standardized inoculation was added to 20 ml media (dilution 1). 10 μl of the new dilution was added to 990 μl media and mixed (dilution 2). 10 μl of dilution 2 was spread on an agar plate and allowed to grow overnight. Colonies were then […].
# (§2) Test compound was diluted to 10 μg/ml in dimethylsulfoxide. Four μl of Rifampicin antibiotic was loaded into row H, column 2.
# (§3) All wells were then filled with 100 μl of inoculated media (dilution 1 from Example 1). A further 100 μl of the inoculated media was then added to column 2 and the contents are pipetted to thoroughly mix the contents. A full 100 μl was then transferred from column 2 and mixed into column 3. This process was continued from left to right until columns 2-12 were serially diluted, and the final draw from column 12 was discarded. The plates were covered with 3M sealing tape (plates containing Enterococcus faecium were sealed with Air Pore sealing tape) and allowed to grow for 20-24 hours. Cytotoxic wells (clear wells) are then scored and the potency of the compound was determined.
# Numerous pathogenic bacteria have developed a resistance to many clinically used antibiotics. Following the protocols described herein, various compounds were mixed with clinically used antibiotics to treat Pseudomonas aeruginosa (P. aeruginosa).
# [2] = test system: Pseudomonas aeruginosa; assay: Bacterial panel testing, MIC by broth microdilution; assay type: cell-based; details: 20-24 hours growth
# Method in brief: (§4)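 Strains grown 2-4 h, 37° C, MH or BHI broth per strain; McFarland-standardized, diluted in media. Cpd 10 μg/ml in DMSO, 2-fold serial dilution cols 2-12. Rifampicin included. 20-24 h growth; clear wells scored.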
# [3] = test system: Eschericia coli; assay: as above; assay type: cell-based; details: 20-24 hours growth
# Method in brief: as §4
# [4] = test system: Salmonella choleraesuis; assay: as above; assay type: cell-based; details: 20-24 hours growth
# Method in brief: as §4
# [5] = test system: Enterococcus faecium; assay: as above; assay type: cell-based; details: 20-24 hours growth
# Method in brief: as §4
# [6] = test system: Staphylococcus aureus; assay: as above; assay type: cell-based; details: 20-24 hours growth
# Method in brief: as §4
# [7] = test system: Lungs cancer cells A549
# [8] = test system: Pseudomonas aeruginosa clinical isolate, multi-drug resistant; assay: Potentiation of clinically used antibiotics, multi-drug resistant clinical isolate; assay type: cell-based; details: Table 4, antibiotic alone or mixed with PP compound
# Method: as §1, §2
# as §3, with “The plates were covered with 3M sealing tape (plates containing Enterococcus faecium were sealed with Air Pore sealing tape) and allowed to grow for 20-24 hours.” left out, “determined. […]” for “determined.”
SMILES,"Activity of known antibiotics alone or in combination with compounds of the invention, P. aeruginosa (susceptible clinical isolate) [1]",MIC PA [2],MIC EC [3],MIC SC [4],MIC EF [5],MIC SA [6],Mammalian Cytotoxicity IC50 [7],MIC [8]
COc1cccc(OC)c1C(=O)N[C@@H]1C(=O)N2[C@@H]1SC(C)(C)[C@@H]2C(=O)O [Methicillin],>100,,,,,,,
Cl.Cl.Cl.Cl.Cl.Cl.Cl.NCCSC[C@H]1O[C@@H]2O[C@H]3[C@H](O)[C@@H](O)[C@@H](O[C@H]4[C@H](O)[C@@H](O)[C@@H](O[C@H]5[C@H](O)[C@@H](O)[C@@H](O[C@H]6[C@H](O)[C@@H](O)[C@@H](O[C@H]7[C@H](O)[C@@H](O)[C@@H](O[C@H]8[C@H](O)[C@@H](O)[C@@H](O[C@H]1[C@H](O)[C@H]2O)O[C@@H]8CSCCN)O[C@@H]7CSCCN)O[C@@H]6CSCCN)O[C@@H]5CSCCN)O[C@@H]4CSCCN)O[C@@H]3CSCCN,,>200 µg/mL,>200 µg/mL,>200 µg/mL,>200 µg/mL,>200 µg/mL,829 µg/mL,
I.I.I.I.I.I.I.N=C(N)SCC1OC2OC3C(CSC(=N)N)OC(OC4C(CSC(=N)N)OC(OC5C(CSC(=N)N)OC(OC6C(CSC(=N)N)OC(OC7C(CSC(=N)N)OC(OC8C(CSC(=N)N)OC(OC1C(O)C2O)C(O)C8O)C(O)C7O)C(O)C6O)C(O)C5O)C(O)C4O)C(O)C3O (stereo not drawn),,>200 µg/mL,>200 µg/mL,>200 µg/mL,>200 µg/mL,>200 µg/mL,480 µg/mL,
Cl.Cl.Cl.Cl.Cl.Cl.Cl.NCCCCCCSC[C@H]1O[C@@H]2O[C@H]3[C@H](O)[C@@H](O)[C@@H](O[C@H]4[C@H](O)[C@@H](O)[C@@H](O[C@H]5[C@H](O)[C@@H](O)[C@@H](O[C@H]6[C@H](O)[C@@H](O)[C@@H](O[C@H]7[C@H](O)[C@@H](O)[C@@H](O[C@H]8[C@H](O)[C@@H](O)[C@@H](O[C@H]1[C@H](O)[C@H]2O)O[C@@H]8CSCCCCCCN)O[C@@H]7CSCCCCCCN)O[C@@H]6CSCCCCCCN)O[C@@H]5CSCCCCCCN)O[C@@H]4CSCCCCCCN)O[C@@H]3CSCCCCCCN,,>200 µg/mL,,,>200 µg/mL,>200 µg/mL,321 µg/mL,
Cl.Cl.Cl.Cl.Cl.Cl.Cl.NCCCCSC[C@H]1O[C@@H]2O[C@H]3[C@H](O)[C@@H](O)[C@@H](O[C@H]4[C@H](O)[C@@H](O)[C@@H](O[C@H]5[C@H](O)[C@@H](O)[C@@H](O[C@H]6[C@H](O)[C@@H](O)[C@@H](O[C@H]7[C@H](O)[C@@H](O)[C@@H](O[C@H]8[C@H](O)[C@@H](O)[C@@H](O[C@H]1[C@H](O)[C@H]2O)O[C@@H]8CSCCCCN)O[C@@H]7CSCCCCN)O[C@@H]6CSCCCCN)O[C@@H]5CSCCCCN)O[C@@H]4CSCCCCN)O[C@@H]3CSCCCCN,,>200 µg/mL,>200 µg/mL,>200 µg/mL,>200 µg/mL,>200 µg/mL,198 µg/mL,
Cl.Cl.Cl.Cl.Cl.Cl.NCCCCSCC1OC2OC3C(CSCCCCN)OC(OC4C(CSCCCCN)OC(OC5C(CSCCCCN)OC(OC6C(CSCCCCN)OC(OC7C(CSCCCCN)OC(OC1C(O)C2O)C(O)C7O)C(O)C6O)C(O)C5O)C(O)C4O)C(O)C3O (stereo not drawn),,>200 µg/mL,>200 µg/mL,>200 µg/mL,>200 µg/mL,>200 µg/mL,589 µg/mL,
Cl.Cl.Cl.Cl.Cl.Cl.Cl.Cl.Cl.Cl.Cl.Cl.Cl.Cl.NCCCC[C@@H](N)C(=O)NC[C@H]1O[C@@H]2O[C@H]3[C@H](O)[C@@H](O)[C@@H](O[C@H]4[C@H](O)[C@@H](O)[C@@H](O[C@H]5[C@H](O)[C@@H](O)[C@@H](O[C@H]6[C@H](O)[C@@H](O)[C@@H](O[C@H]7[C@H](O)[C@@H](O)[C@@H](O[C@H]8[C@H](O)[C@@H](O)[C@@H](O[C@H]1[C@H](O)[C@H]2O)O[C@@H]8CNC(=O)[C@H](N)CCCCN)O[C@@H]7CNC(=O)[C@H](N)CCCCN)O[C@@H]6CNC(=O)[C@H](N)CCCCN)O[C@@H]5CNC(=O)[C@H](N)CCCCN)O[C@@H]4CNC(=O)[C@H](N)CCCCN)O[C@@H]3CNC(=O)[C@H](N)CCCCN,,>200 µg/mL,>200 µg/mL,>200 µg/mL,>200 µg/mL,>200 µg/mL,2990 µg/mL,
Cl.Cl.Cl.Cl.Cl.Cl.Cl.NCCCSC[C@H]1O[C@@H]2O[C@H]3[C@H](O)[C@@H](O)[C@@H](O[C@H]4[C@H](O)[C@@H](O)[C@@H](O[C@H]5[C@H](O)[C@@H](O)[C@@H](O[C@H]6[C@H](O)[C@@H](O)[C@@H](O[C@H]7[C@H](O)[C@@H](O)[C@@H](O[C@H]8[C@H](O)[C@@H](O)[C@@H](O[C@H]1[C@H](O)[C@H]2O)O[C@@H]8CSCCCN)O[C@@H]7CSCCCN)O[C@@H]6CSCCCN)O[C@@H]5CSCCCN)O[C@@H]4CSCCCN)O[C@@H]3CSCCCN,,>200 µg/mL,,>200 µg/mL,>200 µg/mL,>200 µg/mL,191 µg/mL,
Cl.Cl.Cl.Cl.Cl.Cl.Cl.NCc1ccccc1CSCC1OC2OC3C(CSCc4ccccc4CN)OC(OC4C(CSCc5ccccc5CN)OC(OC5C(CSCc6ccccc6CN)OC(OC6C(CSCc7ccccc7CN)OC(OC7C(CSCc8ccccc8CN)OC(OC8C(CSCc9ccccc9CN)OC(OC1C(O)C2O)C(O)C8O)C(O)C7O)C(O)C6O)C(O)C5O)C(O)C4O)C(O)C3O (stereo not drawn),,>100 µg/mL,,,>100 µg/mL,,193.5 µg/mL,
CCn1cc(C(=O)O)c(=O)c2cc(F)c(N3CCNCC3)cc21 [Norfloxacin],,,,,,,,> 100 µg/mL
CN[C@H](CC(C)C)C(=O)N[C@H]1C(=O)N[C@@H](CC(N)=O)C(=O)N[C@H]2C(=O)N[C@H]3C(=O)N[C@H](C(=O)N[C@H](C(=O)O)c4cc(O)cc(O)c4-c4cc3ccc4O)[C@H](O)c3ccc(c(Cl)c3)Oc3cc2cc(c3O[C@@H]2O[C@H](CO)[C@@H](O)[C@H](O)[C@H]2O[C@H]2C[C@](C)(N)[C@H](O)[C@H](C)O2)Oc2ccc(cc2Cl)[C@H]1O [Vancomycin],>100,,,,,,,
CC1(C)S[C@@H]2[C@H](NC(=O)COc3ccccc3)C(=O)N2[C@H]1C(=O)O [Penicillin V],>100,,,,,,,
Cl.Cl.Cl.Cl.Cl.Cl.Cl.Cl.Cl.Cl.Cl.Cl.Cl.Cl.NCCCC(N)C(=O)NCC1OC2OC3C(CNC(=O)C(N)CCCN)OC(OC4C(CNC(=O)C(N)CCCN)OC(OC5C(CNC(=O)C(N)CCCN)OC(OC6C(CNC(=O)C(N)CCCN)OC(OC7C(CNC(=O)C(N)CCCN)OC(OC8C(CNC(=O)C(N)CCCN)OC(OC1C(O)C2O)C(O)C8O)C(O)C7O)C(O)C6O)C(O)C5O)C(O)C4O)C(O)C3O (stereo not drawn),,,>200 µg/mL,>200 µg/mL,>200 µg/mL,>200 µg/mL,860 µg/mL,
O=C(NCC1OC2OC3C(CNC(=O)C4CCCN4)OC(OC4C(CNC(=O)C5CCCN5)OC(OC5C(CNC(=O)C6CCCN6)OC(OC6C(CNC(=O)C7CCCN7)OC(OC7C(CNC(=O)C8CCCN8)OC(OC8C(CNC(=O)C9CCCN9)OC(OC1C(O)C2O)C(O)C8O)C(O)C7O)C(O)C6O)C(O)C5O)C(O)C4O)C(O)C3O)C1CCCN1.O=C(O)C(F)(F)F.O=C(O)C(F)(F)F.O=C(O)C(F)(F)F.O=C(O)C(F)(F)F.O=C(O)C(F)(F)F.O=C(O)C(F)(F)F.O=C(O)C(F)(F)F (stereo not drawn),,>200 µg/mL,>200 µg/mL,>200 µg/mL,>200 µg/mL,>200 µg/mL,524 µg/mL,
